Earlier results on two compounds are cited in patent US20170246117A1, “INJECTABLE MICROPARTICLES FOR HYPER-LOCALIZED RELEASE OF THERAPEUTIC AGENTS” (priority 2014, published 2017).

As usually defined, the EC50 is the concentration that produces a half-maximal response.

The conditions of series [1]: reported, Mollmann et al. 1998.
The conditions of series [2]: 40 mg, human subjects; Derendorf et al. 1986; FIG. 7.

As for `CCC(=O)O[C@]1(C(=O)SCF)[C@H](C)C[C@H]2[C@@H]3C[C@H](F)C4=CC(=O)C=C[C@]4(C)[C@@]3(F)[C@@H](O)C[C@@]21C` [fluticasone propionate], the concentration for a half-maximal effect (EC50) in series [1] was 0.007 to 0.03 ng/mL.

For the compound `CC(C)(C)CC(=O)OCC(=O)[C@@]12OC(C)(C)O[C@@H]1C[C@H]1[C@@H]3CCC4=CC(=O)C=C[C@]4(C)[C@@]3(F)[C@@H](O)C[C@@]12C` [triamcinolone hexacetonide], the “release profile after intra-articular administration” value in series [2] was “significant initial burst followed by rapid decline”.
